Reference: patent US7777030B2, “Compositions and methods for the treatment and prevention of disease” (Centre National de la Recherge Scientifique (CNRS), priority 2005, dated 2010)

How the values were obtained:
[1] = system: primary mouse hepatocyte culture; assay: toxicity on primary mouse hepatocyte culture; format: cell-based; conditions: tested at different doses (6, 25-100 μg/ml)
[2] = system: malaria liver stage (LS) parasites; assay: effect on sporozoite invasion and malaria liver stage development in hepatocytes; format: cell-based; conditions: compounds added at sporozoite invasion and during liver stage development; schizonts counted in 48 hours cultures; FIG. 5

Row | SMILES | toxicity on primary mouse hepatocyte culture [1] | effect on liver parasites / LS development (schizont number) [2]
1 | CN1CNC(=O)NC(Cc2ccccc2)C1=O (stereo not shown) [4b] | non toxic | inhibit significantly and repeatedly
2 | CN1CN(Cc2ccccc2)C(=O)NC(Cc2ccccc2)C1=O (stereo not shown) [8a] | non toxic | inhibit significantly and repeatedly
